Source: PMC5609601 (Brazilian Journal of Medical and Biological Research, 2017)
“Also recorded” adds a separate entry of the source. Where two headings read alike, the source gives them in different places.

Legend:
[1] = Stability of curcumin constituents; assay type: physicochemical, rat; settings: for Concentration in blank intestinal perfusion fluid: 37.5±0.5°C, drug-containing SEDDS; for Stability in pH 6.8 K-R blank intestinal perfusion fluid: within 8 h, curcumin SEDDS
[2] = test system: P-gp; assay type: in vivo, rat; settings: for Influence of verapamil hydrochloride on absorption / Influence of verapamil hydrochloride on Ka / Influence of verapamil hydrochloride on Papp / Influence of verapamil hydrochloride on A%: ileum; for Influence of verapamil hydrochloride on Ka / Influence of verapamil hydrochloride on Papp: high-concentration inhibitor; for Substrate of P-glycoprotein: inferred from verapamil hydrochloride effect
[3] = Adsorption of the constituents by the intestinal wall; assay type: in vitro ADME, rat; settings: for Absorption in the intestinal wall: curcumin SEDDS; for Concentration in incubation solution with intestinal wall: 37.5±0.5°C
[4] = target: MRP2 (Rattus norvegicus, UniProt Q63120); assay type: in vivo; settings: for Substrate of MRP2: inferred from probenecid effect
[5] = test system: rat small intestines; assay: In situ single pass intestinal perfusion: absorption site and drug concentration; assay type: in vivo; settings: for Comparison of absorption among intestinal segments / Concentration dependence of absorption: duodenum; for Comparison of absorption among intestinal segments: jejunum, ileum, colon; for Comparison of absorption among intestinal segments / Main intestinal absorption site: higher concentration group; for Concentration dependence of absorption: low, medium, high, higher concentrations; for Main intestinal absorption site: different intestinal segments; for Transport (absorption) mechanism: rat small intestine
[6] = test system: rat small intestines; assay type: in vivo; settings: duodenum; for Influence of 2,4-dinitrophenol on Ka / Influence of 2,4-dinitrophenol on Papp / Influence of 2,4-dinitrophenol on A%: compared with the group without inhibitor; for Influence of 2,4-dinitrophenol on A%: 1.0, 2.0, 5.0 mmol/L
[7] = jejunum, high-concentration probenecid
[8] = jejunum, probenecid 0.02, 0.04, 0.08 mmol/L

Sequence of MRP2 (Q63120 whole entry, the tested form may be a part): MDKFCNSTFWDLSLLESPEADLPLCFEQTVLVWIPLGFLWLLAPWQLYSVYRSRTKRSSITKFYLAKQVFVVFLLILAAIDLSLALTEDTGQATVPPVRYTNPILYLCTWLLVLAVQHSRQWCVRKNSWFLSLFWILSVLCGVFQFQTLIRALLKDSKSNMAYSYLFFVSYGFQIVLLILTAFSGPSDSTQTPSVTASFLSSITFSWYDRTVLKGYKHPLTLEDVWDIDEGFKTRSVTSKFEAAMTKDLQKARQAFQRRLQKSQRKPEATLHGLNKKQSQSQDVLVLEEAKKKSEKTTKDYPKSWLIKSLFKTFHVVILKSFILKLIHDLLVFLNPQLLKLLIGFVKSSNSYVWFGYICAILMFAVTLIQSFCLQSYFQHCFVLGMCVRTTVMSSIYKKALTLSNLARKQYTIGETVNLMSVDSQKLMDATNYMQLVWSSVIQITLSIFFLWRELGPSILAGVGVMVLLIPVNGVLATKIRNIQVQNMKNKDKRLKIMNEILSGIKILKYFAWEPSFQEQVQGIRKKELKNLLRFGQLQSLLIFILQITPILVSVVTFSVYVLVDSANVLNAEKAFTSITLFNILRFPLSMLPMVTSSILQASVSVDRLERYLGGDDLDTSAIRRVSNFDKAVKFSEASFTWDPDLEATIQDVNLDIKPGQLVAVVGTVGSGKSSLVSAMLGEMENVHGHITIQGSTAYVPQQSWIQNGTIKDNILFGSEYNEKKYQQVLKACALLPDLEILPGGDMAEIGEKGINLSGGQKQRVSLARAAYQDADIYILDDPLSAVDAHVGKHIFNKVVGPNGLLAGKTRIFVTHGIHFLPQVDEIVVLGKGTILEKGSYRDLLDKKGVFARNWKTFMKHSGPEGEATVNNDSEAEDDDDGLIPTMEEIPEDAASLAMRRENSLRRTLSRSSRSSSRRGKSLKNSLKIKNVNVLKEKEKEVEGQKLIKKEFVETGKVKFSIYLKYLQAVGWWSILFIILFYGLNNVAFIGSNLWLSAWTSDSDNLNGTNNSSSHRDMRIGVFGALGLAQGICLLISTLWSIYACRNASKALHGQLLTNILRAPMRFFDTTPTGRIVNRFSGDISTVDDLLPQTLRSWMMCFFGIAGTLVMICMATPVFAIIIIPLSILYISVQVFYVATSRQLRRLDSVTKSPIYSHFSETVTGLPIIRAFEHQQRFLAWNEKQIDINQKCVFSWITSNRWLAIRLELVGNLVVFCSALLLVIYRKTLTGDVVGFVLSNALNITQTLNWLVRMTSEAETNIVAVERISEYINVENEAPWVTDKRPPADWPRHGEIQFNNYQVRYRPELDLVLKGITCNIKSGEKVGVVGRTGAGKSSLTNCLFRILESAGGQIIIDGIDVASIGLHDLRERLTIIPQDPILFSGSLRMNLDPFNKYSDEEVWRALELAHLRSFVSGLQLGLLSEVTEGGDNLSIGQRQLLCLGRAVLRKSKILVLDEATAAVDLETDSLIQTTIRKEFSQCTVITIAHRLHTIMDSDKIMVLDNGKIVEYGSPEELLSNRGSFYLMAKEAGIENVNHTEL

Concentration in blank intestinal perfusion fluid ([1]; time 0 h) [µg/mL] | Concentration in blank intestinal perfusion fluid ([1]; time 1 h) [µg/mL] | Concentration in blank intestinal perfusion fluid ([1]; time 2 h) [µg/mL] | Concentration in blank intestinal perfusion fluid ([1]; time 4 h) [µg/mL] | Concentration in blank intestinal perfusion fluid ([1]; time 8 h) [µg/mL] | Stability in pH 6.8 K-R blank intestinal perfusion fluid [1] | Influence of verapamil hydrochloride on absorption [2] | Influence of verapamil hydrochloride on Ka [2] | Influence of verapamil hydrochloride on Papp [2] | Substrate of P-glycoprotein [2] | Absorption in the intestinal wall [3] | Concentration in incubation solution with intestinal wall ([3]; time 0 min) [µg/mL] | Concentration in incubation solution with intestinal wall ([3]; time 30 min) [µg/mL] | Concentration in incubation solution with intestinal wall ([3]; time 60 min) [µg/mL] | Concentration in incubation solution with intestinal wall ([3]; time 90 min) [µg/mL] | Concentration in incubation solution with intestinal wall ([3]; time 120 min) [µg/mL] | Substrate of MRP2 [4] | Influence of probenecid on Papp [4, 7] | Concentration dependence of absorption [5] | Compound | Change of A% with probenecid concentration ([4]; jejunum) | other results
159 | 158 | 157 | 156 | 154 | stable | significantly improve the absorption | significantly accelerated | significantly accelerated | may be the substrates | no obvious absorption | 166.950 | 165.354 | 164.023 | 163.724 | 162.104 | may be the substrates | significantly increased | saturation phenomenon | COc1cc(/C=C/C(O)=C/C(=O)/C=C/c2ccc(O)cc2)ccc1O [DMCur, demethoxycurcumin] | increased with the increase in probenecid concentration | Influence of verapamil hydrochloride on A% ([2]; medium-concentration and high-concentration inhibitor): significant increase; Change of Ka with probenecid concentration ([4]; jejunum): increased with the increase in probenecid concentration; Influence of probenecid on A% [4, 8]: significantly increased; Comparison of absorption among intestinal segments [5]: duodenum > colon ≈ jejunum > ileum; also recorded: better in the duodenum and relatively poorer in the ileum; Main intestinal absorption site [5]: duodenum; Absorption in duodenum compared to colon ([5]; one-way ANOVA): increased significantly (P<0.05); Absorption in duodenum compared with ileum ([5]; one-way ANOVA): increased (P<0.01) in an extremely significant manner; Absorption in jejunum compared with ileum ([5]; one-way ANOVA): increased significantly (P<0.05); Transport (absorption) mechanism [5]: active transport in the carrier-mediated transport; Energy dependence of intestinal absorption process [6]: energy-dependent action; Influence of 2,4-dinitrophenol on Ka [6]: decreased significantly (P<0.05); Influence of 2,4-dinitrophenol on Papp [6]: decreased significantly (P<0.05); Influence of 2,4-dinitrophenol on A% [6]: decreased in an extremely significant manner (P<0.01)
26 | 26 | 26 | 26 | 25 | stable | significantly improve the absorption | significantly accelerated | significantly accelerated | may be the substrates | no obvious absorption | 27.300 | 27.288 | 27.247 | 27.173 | 26.253 | may be the substrates | significantly increased | concentration inhibiting effect | O=C(/C=C/c1ccc(O)cc1)CC(=O)/C=C/c1ccc(O)cc1 [BDMCur, bisdemethoxycurcumin] | – | Influence of verapamil hydrochloride on A% ([2]; verapamil hydrochloride 0.05, 0.1, 0.5 mmol/L): almost no influence; Change of A% when probenecid concentration was further increased ([4]; jejunum, above medium concentration): barely changed; Influence of probenecid on Ka [4, 7]: significantly increased; Influence of probenecid on A% ([4]; jejunum, medium-concentration probenecid): significantly increased; Influence of probenecid on A% [4, 8]: significantly increased; Comparison of absorption among intestinal segments [5]: not significantly different (P>0.05); also recorded: better in the duodenum and relatively poorer in the ileum; Main intestinal absorption site [5]: duodenum; Absorption in duodenum compared to colon ([5]; one-way ANOVA): increased (P<0.01) in an extremely significant manner; Transport (absorption) mechanism [5]: active transport in the carrier-mediated transport; Energy dependence of intestinal absorption process [6]: energy-dependent action; Influence of 2,4-dinitrophenol on Ka [6]: decreased significantly (P<0.05); Influence of 2,4-dinitrophenol on Papp [6]: decreased significantly (P<0.05); Influence of 2,4-dinitrophenol on A% [6]: decreased in an extremely significant manner (P<0.01)
685 | 684 | 682 | 678 | 668 | stable | – | – | significantly accelerated | – | – | 719.250 | 717.346 | 716.858 | 716.019 | 701.751 | – | significantly increased | concentration inhibiting effect | COc1cc(/C=C/C(=O)CC(=O)/C=C/c2ccc(O)c(OC)c2)ccc1O [Cur, curcumin] | increased with the increase in probenecid concentration | Change of Ka with probenecid concentration ([4]; jejunum): increased with the increase in probenecid concentration
